Laboratory results from patent US7781565B2 (priority 2006, dated 2010).
“Also recorded” adds a separate entry of the source.

Test system: NCI-60 cell lines
Assay type: cell-based, human

SSRMGLV
Cell Line with which the peptide (and its tripeptide motif) is associated: SR Leukemia

ASLPPRA
Cell Line with which the peptide (and its tripeptide motif) is associated: EKVX-Lung

GGSGIGS
Cell Line with which the peptide (and its tripeptide motif) is associated: Hop-92-Lung

EGARASD
Cell Line with which the peptide (and its tripeptide motif) is associated: Hop-92-Lung

GRLRLTD
Cell Line with which the peptide (and its tripeptide motif) is associated: HL-60-Leukemia

TAGSSRL
Cell Line with which the peptide (and its tripeptide motif) is associated: H322-Lung

HKLARGR
Cell Line with which the peptide (and its tripeptide motif) is associated: EKVX-Lung

RASCVWA
Cell Line the peptide is associated with (peptide recovered from phage library selection on this NCI-60 cell line): MCF-7 Breast

SGGAVHF
Cell Line with which the peptide (and its tripeptide motif) is associated: SR Leukemia

PTGAGLL
Cell Line (NCI-60 cell line the peptide and its motif are associated with): IGROV1 Ovarian

LVSTRWA
Cell Line the peptide is associated with (peptide recovered from phage library selection on this NCI-60 cell line): RXF393 Renal

NEGRLGI
Cell Line (NCI-60 cell line the peptide is associated with): SNB-75 CNS

NSVRGSR
Cell Line (NCI-60 cell line the peptide and its motif are associated with): SK-OV-3-3 Ovarian

GVSKVRA
Cell Line with which the peptide (and its tripeptide motif) is associated: A549-Lung

LLRRLSW
Cell Line (NCI-60 cell line the peptide and its motif are associated with): SK-MEL-2 Melanoma

PVRRVSS
Cell Line the peptide is associated with (peptide recovered from phage library selection on this NCI-60 cell line): HS 578 T Breast

RYSMASL
Cell Line (NCI-60 cell line the peptide and its motif are associated with): SK-MEL-5 Melanoma

PSVGVRA
Cell Line with which the peptide (and its tripeptide motif) is associated: H322-Lung

SSGPRSS
Cell Line with which the peptide (and its tripeptide motif) is associated: Hop-62-Lung

GAGRFPH
Cell Line (NCI-60 cell line the peptide and its motif are associated with): 786-0 Renal

GLVSVEA
Cell Line with which the peptide (and its tripeptide motif) is associated: A549-Lung

DGAGSLR
Cell Line (NCI-60 cell line the peptide and its motif are associated with): OVCAR-5 Ovarian

DDGRVHR
Cell Line the peptide is associated with (peptide recovered from phage library selection on this NCI-60 cell line): BT-549 Breast

LGLRGGA
Cell Line (NCI-60 cell line the peptide is associated with): SF-268 CNS

GRVTGGR
Cell Line (NCI-60 cell line the peptide is associated with): HCT-15 Colon

YGSVALR
Cell Line (NCI-60 cell line the peptide is associated with): H522-Lung

ANGSSKK
Cell Line the peptide is associated with (peptide recovered from phage library selection on this NCI-60 cell line): MDA-MB-231 Breast

VARAVPC
Cell Line with which the peptide (and its tripeptide motif) is associated: Hop-92-Lung

DTLRSQW
Cell Line (NCI-60 cell line the peptide is associated with): HCT-15 Colon

WLDAAVK
Cell Line (NCI-60 cell line the peptide is associated with): LOX-IMVI Melanoma

DVRAVSS
Cell Line with which the peptide (and its tripeptide motif) is associated: EKVX-Lung

WGLVRHA
Cell Line (NCI-60 cell line the peptide is associated with): SF-268 CNS

LLRRGIG
Cell Line (NCI-60 cell line the peptide and its motif are associated with): SK-MEL-5 Melanoma

GTFGVLG
Cell Line with which the peptide (and its tripeptide motif) is associated: Hop-62-Lung

RSWNAGR
Cell Line the peptide is associated with (peptide recovered from phage library selection on this NCI-60 cell line): UO31 Renal

WYGGRGN
Cell Line (NCI-60 cell line the peptide and its motif are associated with): OVCAR-4 Ovarian

RRGLGDA
Cell Line the peptide is associated with (peptide recovered from phage library selection on this NCI-60 cell line): TK-10 Renal

RDLGGRW
Cell Line the peptide is associated with (peptide recovered from phage library selection on this NCI-60 cell line): MCF-7 Breast

PRSSYNE
Cell Line with which the peptide (and its tripeptide motif) is associated: H460-Lung

LRVSNPR
Cell Line (NCI-60 cell line the peptide and its motif are associated with): UACC62 Melanoma

GRLRLRV
Cell Line (NCI-60 cell line the peptide is associated with): SF-295 CNS

WAHGVLS
Cell Line (NCI-60 cell line the peptide and its motif are associated with): M14 Melanoma

FEGGRSG
Cell Line (NCI-60 cell line the peptide and its motif are associated with): M14 Melanoma

LLSTVWV
Cell Line the peptide is associated with (peptide recovered from phage library selection on this NCI-60 cell line): TK-10 Renal

GVAGLRW
Cell Line (NCI-60 cell line the peptide is associated with): SW620-Colon

HGGRARL
Cell Line (NCI-60 cell line the peptide is associated with): HT-29 Colon

APLRSGR
Cell Line with which the peptide (and its tripeptide motif) is associated: EKVX-Lung

QDRVSRS
Cell Line with which the peptide (and its tripeptide motif) is associated: Hop-92-Lung

PLRSFDS
Cell Line with which the peptide (and its tripeptide motif) is associated: H23-Lung

VYGGRSE
Cell Line the peptide is associated with (peptide recovered from phage library selection on this NCI-60 cell line): CAIK-1 Renal

QTLSAGG
Cell Line (NCI-60 cell line the peptide is associated with): SF-295 CNS

WFSWLVS
Cell Line with which the peptide (and its tripeptide motif) is associated: H460-Lung

ISPRSSG
Cell Line (NCI-60 cell line the peptide is associated with): HCT-15 Colon

FAWGGRG
Cell Line with which the peptide (and its tripeptide motif) is associated: K-562-Leukemia

DVVGVLK
Cell Line (NCI-60 cell line the peptide is associated with): SF-268 CNS

EVGGGLT
Cell Line with which the peptide (and its tripeptide motif) is associated: CCRF-CEM Leukemia

VGVSQEW
Cell Line the peptide is associated with (peptide recovered from phage library selection on this NCI-60 cell line): TK-10 Renal

FSGDAVS
Cell Line (NCI-60 cell line the peptide is associated with): HT-29 Colon

GVAIGRL
Cell Line the peptide is associated with (peptide recovered from phage library selection on this NCI-60 cell line): CAIK-1 Renal

GGSIDCC
Cell Line the peptide is associated with (peptide recovered from phage library selection on this NCI-60 cell line): SN12C Renal

GVRGAAR
Cell Line (NCI-60 cell line the peptide is associated with): HCT-15 Colon

GRLAKSI
Cell Line (NCI-60 cell line the peptide and its motif are associated with): UACC 257 Melanoma

GSVLGAL
Cell Line (NCI-60 cell line the peptide is associated with): HT-29 Colon

GGLRGVR
Cell Line with which the peptide (and its tripeptide motif) is associated: A549-Lung

SLTRAVR
Cell Line with which the peptide (and its tripeptide motif) is associated: Hop-92-Lung

GGSRAAE
Cell Line with which the peptide (and its tripeptide motif) is associated: H322-Lung

LGLRAFV
Cell Line with which the peptide (and its tripeptide motif) is associated: H322-Lung

RLRAASY
Cell Line with which the peptide (and its tripeptide motif) is associated: RPMI-8226-Leukemia

PRGMARG
Cell Line the peptide is associated with (peptide recovered from phage library selection on this NCI-60 cell line): BT-549 Breast

DIALVSP
Cell Line with which the peptide (and its tripeptide motif) is associated: A549-Lung

LRFRRGV
Cell Line (NCI-60 cell line the peptide and its motif are associated with): PC3 Prostate

GAGRTVM
Cell Line with which the peptide (and its tripeptide motif) is associated: SR Leukemia

EGLVSVV
Cell Line with which the peptide (and its tripeptide motif) is associated: Molt-4-Leukemia

GLGALRW
Cell Line the peptide is associated with (peptide recovered from phage library selection on this NCI-60 cell line): NCI/ADR-RES Breast

GLRKAGF
Cell Line with which the peptide (and its tripeptide motif) is associated: SR Leukemia

VTGGRVD
Cell Line with which the peptide (and its tripeptide motif) is associated: A549-Lung

DHVSGSV
Cell Line the peptide is associated with (peptide recovered from phage library selection on this NCI-60 cell line): CAIK-1 Renal

LVRVSGR
Cell Line with which the peptide (and its tripeptide motif) is associated: HL-60-Leukemia

GVVQAVS
Cell Line (NCI-60 cell line the peptide and its motif are associated with): SK-MEL-5 Melanoma

AWAGGDM
Cell Line (NCI-60 cell line the peptide and its motif are associated with): DU-145 Prostate

PRSSLVV
Cell Line with which the peptide (and its tripeptide motif) is associated: H460-Lung

SVLGSSL
Cell Line with which the peptide (and its tripeptide motif) is associated: H460-Lung

WSGVSRL
Cell Line (NCI-60 cell line the peptide is associated with): HCT-15 Colon

LRVYGEG
Cell Line (NCI-60 cell line the peptide is associated with): SNB-75 CNS

GLGNRPT
Cell Line with which the peptide (and its tripeptide motif) is associated: RPMI-8226-Leukemia

FAGGSTD
Cell Line with which the peptide (and its tripeptide motif) is associated: HL-60-Leukemia

EAVSRGS
Cell Line with which the peptide (and its tripeptide motif) is associated: K-562-Leukemia

DGSVLVE
Cell Line with which the peptide (and its tripeptide motif) is associated: Molt-4-Leukemia

PRSSGPM
Cell Line the peptide is associated with (peptide recovered from phage library selection on this NCI-60 cell line): RXF393 Renal

SVSGAGS
Cell Line (NCI-60 cell line the peptide and its motif are associated with): OVCAR-5 Ovarian

TGGSLLG
Cell Line (NCI-60 cell line the peptide and its motif are associated with): IGROV1 Ovarian

PPPWGLR
Cell Line with which the peptide (and its tripeptide motif) is associated: K-562-Leukemia

AGGVRDL
Cell Line (NCI-60 cell line the peptide and its motif are associated with): PC3 Prostate

GGFLLVS
Cell Line (NCI-60 cell line the peptide and its motif are associated with): SK-OV-3-3 Ovarian

LGGLSPH
Cell Line with which the peptide (and its tripeptide motif) is associated: H322-Lung

RGSPAAA
Cell Line the peptide is associated with (peptide recovered from phage library selection on this NCI-60 cell line): MDA-MB-435-Breast

GRDWGGL
Cell Line the peptide is associated with (peptide recovered from phage library selection on this NCI-60 cell line): T-47D Breast

PGSSFVG
Cell Line (NCI-60 cell line the peptide is associated with): HCT-15 Colon

HGYRAGG
Cell Line with which the peptide (and its tripeptide motif) is associated: Hop-62-Lung

RASCFWD
Cell Line the peptide is associated with (peptide recovered from phage library selection on this NCI-60 cell line): SN12C Renal

EVRSRGS
Cell Line with which the peptide (and its tripeptide motif) is associated: EKVX-Lung

EVLWGGR
Cell Line (NCI-60 cell line the peptide is associated with): SF-268 CNS

LLRPAHG
Cell Line (NCI-60 cell line the peptide and its motif are associated with): SK-MEL-2 Melanoma

TATGGLL
Cell Line (NCI-60 cell line the peptide and its motif are associated with): OVCAR-8 Ovarian

AATLLSF
Cell Line with which the peptide (and its tripeptide motif) is associated: K-562-Leukemia

MSAFGRL
Cell Line with which the peptide (and its tripeptide motif) is associated: EKVX-Lung

LLSSRRC
Cell Line (NCI-60 cell line the peptide and its motif are associated with): SK-MEL-2 Melanoma

RPWGAVA
Cell Line (NCI-60 cell line the peptide and its motif are associated with): SK-OV-3-3 Ovarian

DLVGRVR
Cell Line the peptide is associated with (peptide recovered from phage library selection on this NCI-60 cell line): BT-549 Breast

SAAGLAR
Cell Line (NCI-60 cell line the peptide and its motif are associated with): SK-OV-3-3 Ovarian

RERGAVQ
Cell Line with which the peptide (and its tripeptide motif) is associated: CCRF-CEM Leukemia

YMYHGRV
Cell Line (NCI-60 cell line the peptide and its motif are associated with): OVCAR-4 Ovarian

LRYWAAV
Cell Line (NCI-60 cell line the peptide and its motif are associated with): SK-MEL-2 Melanoma

GVWLRGS
Cell Line the peptide is associated with (peptide recovered from phage library selection on this NCI-60 cell line): RXF393 Renal

IYGGLVI
Cell Line (NCI-60 cell line the peptide and its motif are associated with): SK-MEL-5 Melanoma

KRAVGRM
Cell Line (NCI-60 cell line the peptide and its motif are associated with): A498 Renal

TRGAVFG
Cell Line (NCI-60 cell line the peptide and its motif are associated with): SK-MEL-5 Melanoma

GGLSRSN
Cell Line (NCI-60 cell line the peptide is associated with): SF-268 CNS

RGVSGRL
Cell Line (NCI-60 cell line the peptide and its motif are associated with): SK-MEL-28 Melanoma

GRMLVSG
Cell Line (NCI-60 cell line the peptide and its motif are associated with): OVCAR-4 Ovarian

GWLNAAV
Cell Line (NCI-60 cell line the peptide and its motif are associated with): UACC 257 Melanoma

RIFHGAV
Cell Line (NCI-60 cell line the peptide is associated with): SNB-19 CNS; also recorded: SF-539 CNS

YYAGGLK
Cell Line with which the peptide (and its tripeptide motif) is associated: Hop-62-Lung

LLSASLV
Cell Line with which the peptide (and its tripeptide motif) is associated: K-562-Leukemia

DSGLVGG
Cell Line (NCI-60 cell line the peptide is associated with): LOX-IMVI Melanoma

LGYYGAV
Cell Line the peptide is associated with (peptide recovered from phage library selection on this NCI-60 cell line): T-47D Breast

TREGGLD
Cell Line (NCI-60 cell line the peptide is associated with): KM-12C Colon

AGSMMEF
Cell Line (NCI-60 cell line the peptide and its motif are associated with): OVCAR-3 Ovarian

LVRLVSL
Cell Line (NCI-60 cell line the peptide and its motif are associated with): IGROV1 Ovarian

IGVLASA
Cell Line (NCI-60 cell line the peptide and its motif are associated with): SK-MEL-28 Melanoma

CGAVAEW
Cell Line (NCI-60 cell line the peptide and its motif are associated with): PC3 Prostate

AGSLSVF
Cell Line with which the peptide (and its tripeptide motif) is associated: CCRF-CEM Leukemia

NAVRGSA
Cell Line (NCI-60 cell line the peptide is associated with): HCT-116 Colon

VEEGRLR
Cell Line (NCI-60 cell line the peptide is associated with): SW620-Colon

ESARGAL
Cell Line (NCI-60 cell line the peptide and its motif are associated with): OVCAR-4 Ovarian
